As a reminder, the melting point is the temperature of the solid-liquid transition. One may read the IC50 as the concentration at which inhibition is half-maximal. Higher therefore signals weaker potency.

One data set addresses jack bean urease (Canavalia ensiformis, UniProt P07374). Put plainly: biochemical. The procedure: Urease is an enzyme (jack bean urease) that catalyzes the hydrolysis of urea into carbon dioxide and ammonia. The production of ammonia was measured by the indophenol method and used to determine the urease inhibitory activity[57],[58]. The percentage remaining activity was calculated from the formula % Remaining Activity = [(ODtest)/(ODcontrol) × 100]. Thiourea was used as a standard inhibitor. To calculate IC50 values, different concentrations of synthesized compounds and standards were assayed at the same reaction conditions.

Chain of jack bean urease (P07374 whole entry, looked up): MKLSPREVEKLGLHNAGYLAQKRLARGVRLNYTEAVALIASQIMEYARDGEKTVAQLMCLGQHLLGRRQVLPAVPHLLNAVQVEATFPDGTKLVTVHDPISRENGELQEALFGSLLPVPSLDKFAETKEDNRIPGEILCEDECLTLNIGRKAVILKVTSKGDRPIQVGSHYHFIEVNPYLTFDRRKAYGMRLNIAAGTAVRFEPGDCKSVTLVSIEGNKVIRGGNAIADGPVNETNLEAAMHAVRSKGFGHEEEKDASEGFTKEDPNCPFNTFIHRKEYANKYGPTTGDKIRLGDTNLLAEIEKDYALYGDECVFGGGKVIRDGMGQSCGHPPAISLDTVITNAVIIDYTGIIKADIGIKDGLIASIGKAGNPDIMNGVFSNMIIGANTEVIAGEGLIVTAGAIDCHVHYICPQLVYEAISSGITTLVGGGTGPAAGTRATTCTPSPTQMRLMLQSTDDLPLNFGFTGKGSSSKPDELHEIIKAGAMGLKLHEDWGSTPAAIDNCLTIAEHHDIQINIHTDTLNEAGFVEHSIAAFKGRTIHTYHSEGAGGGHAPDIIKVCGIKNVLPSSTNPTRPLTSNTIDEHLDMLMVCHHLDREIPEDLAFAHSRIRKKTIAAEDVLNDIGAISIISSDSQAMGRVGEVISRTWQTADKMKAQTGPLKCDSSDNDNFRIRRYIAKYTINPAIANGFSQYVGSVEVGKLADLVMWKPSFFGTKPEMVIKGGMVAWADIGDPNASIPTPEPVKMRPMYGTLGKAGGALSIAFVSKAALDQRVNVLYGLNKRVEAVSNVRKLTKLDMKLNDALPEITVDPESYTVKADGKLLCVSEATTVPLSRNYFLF

Take `O=[N+]([O-])c1ccc(S(=O)(=O)Nc2nnc(-c3ccc(C(c4c[nH]c5ccc(Br)cc45)c4c[nH]c5ccc(Br)cc45)cc3)s2)cc1` [Compound 2, N-(5-(4-(bis(5-bromo-1H-indol-3-yl)methyl)phenyl)-1,3,4-thiadiazol-2-yl)-4-nitrobenzenesulfonamide]: the melting point fell in the range of 312 to 313 °C. This molecule yielded an IC50 on jack bean urease of 1.8 ± 0.01 µM. For `O=S(=O)(Nc1nnc(-c2ccc(C(c3c[nH]c4ccc(Br)cc34)c3c[nH]c4ccc(Br)cc34)cc2)s1)c1ccc(Cl)c(Cl)c1` [Compound 10, N-(5-(4-(bis(5-bromo-1H-indol-3-yl)methyl)phenyl)-1,3,4-thiadiazol-2-yl)-3,4-dichlorobenzenesulfonamide], in that order: 302 to 303 °C and 1.6 ± 0.01 µM. For `O=[N+]([O-])c1ccc(S(=O)(=O)Nc2nnc(-c3ccc(C(c4c[nH]c5ccc(Br)cc45)c4c[nH]c5ccc(Br)cc45)cc3)s2)cc1Cl` [Compound 9, N-(5-(4-(bis(5-bromo-1H-indol-3-yl)methyl)phenyl)-1,3,4-thiadiazol-2-yl)-3-chloro-4-nitrobenzenesulfonamide], in that order: 318 to 319 °C and 1.1 ± 0.01 µM. On jack bean urease, `O=[N+]([O-])c1ccc(S(=O)(=O)Nc2nnc(-c3ccc(C(c4c[nH]c5ccc(Br)cc45)c4c[nH]c5ccc(Br)cc45)cc3)s2)c([N+](=O)[O-])c1` [Compound 8, N-(5-(4-(bis(5-bromo-1H-indol-3-yl)methyl)phenyl)-1,3,4-thiadiazol-2-yl)-2,4-dinitrobenzenesulfonamide] displayed an IC50 of 0.5 ± 0.01 µM. As to `O=S(=O)(Nc1nnc(-c2ccc(C(c3c[nH]c4ccc(Br)cc34)c3c[nH]c4ccc(Br)cc34)cc2)s1)c1cc(Cl)c(Cl)cc1Cl` [Compound 6, N-(5-(4-(bis(5-bromo-1H-indol-3-yl)methyl)phenyl)-1,3,4-thiadiazol-2-yl)-2,4,5-trichlorobenzenesulfonamide], the melting point lay in the range of 299 to 300 °C. On jack bean urease, the IC50 was found to be 0.7 ± 0.01 µM. For `O=S(=O)(Nc1nnc(-c2ccc(C(c3c[nH]c4ccc(Br)cc34)c3c[nH]c4ccc(Br)cc34)cc2)s1)c1ccccc1` [Compound 1, N-(5-(4-(bis(5-bromo-1H-indol-3-yl)methyl)phenyl)-1,3,4-thiadiazol-2-yl)benzenesulfonamide], in that order: 301 to 302 °C and 13.2 ± 0.3 µM. The corresponding values for `O=S(=O)(Nc1nnc(-c2ccc(C(c3c[nH]c4ccc(Br)cc34)c3c[nH]c4ccc(Br)cc34)cc2)s1)c1ccc2ccccc2c1` [Compound 11, N-(5-(4-(bis(5-bromo-1H-indol-3-yl)methyl)phenyl)-1,3,4-thiadiazol-2-yl)naphthalene-2-sulfonamide] are 313 to 314 °C and 33.2 ± 1.2 µM.

The molecule `COc1ccc(O)c(S(=O)(=O)Nc2nnc(-c3ccc(C(c4c[nH]c5ccc(Br)cc45)c4c[nH]c5ccc(Br)cc45)cc3)s2)c1` [Compound 4, N-(5-(4-(bis(5-bromo-1H-indol-3-yl)methyl)phenyl)-1,3,4-thiadiazol-2-yl)-2-hydroxy-5-methoxybenzenesulfonamide] returned a half-maximal inhibitory concentration (IC50) at jack bean urease of 2.2 ± 0.1 µM. Molecule `COc1ccc([N+](=O)[O-])c(S(=O)(=O)Nc2nnc(-c3ccc(C(c4c[nH]c5ccc(Br)cc45)c4c[nH]c5ccc(Br)cc45)cc3)s2)c1` [Compound 15, N-(5-(4-(bis(5-bromo-1H-indol-3-yl)methyl)phenyl)-1,3,4-thiadiazol-2-yl)-5-methoxy-2-nitrobenzenesulfonamide] registered a melting point of 308 to 309 °C. This molecule displayed an IC50 at jack bean urease of 3.9 ± 0.1 µM. For `Cc1cccc(S(=O)(=O)Nc2nnc(-c3ccc(C(c4c[nH]c5ccc(Br)cc45)c4c[nH]c5ccc(Br)cc45)cc3)s2)c1` [Compound 17, N-(5-(4-(bis(5-bromo-1H-indol-3-yl)methyl)phenyl)-1,3,4-thiadiazol-2-yl)-3-methylbenzenesulfonamide], in that order: 289 to 290 °C and 28.6 ± 1.2 µM. The corresponding values for `Cc1ccc([N+](=O)[O-])c(S(=O)(=O)Nc2nnc(-c3ccc(C(c4c[nH]c5ccc(Br)cc45)c4c[nH]c5ccc(Br)cc45)cc3)s2)c1` [Compound 13, N-(5-(4-(bis(5-bromo-1H-indol-3-yl)methyl)phenyl)-1,3,4-thiadiazol-2-yl)-5 methyl-2-nitrobenzenesulfonamide] are 312 to 313 °C and 5.1 ± 0.1 µM.

Regarding `O=[N+]([O-])c1ccccc1S(=O)(=O)Nc1nnc(-c2ccc(C(c3c[nH]c4ccc(Br)cc34)c3c[nH]c4ccc(Br)cc34)cc2)s1` [Compound 3, N-(5-(4-(bis(5-bromo-1H-indol-3-yl)methyl)phenyl)-1,3,4-thiadiazol-2-yl)-2-nitrobenzenesulfonamide], the melting point was in the range of 314 to 315 °C. This molecule registered an IC50 against jack bean urease of 1.1 ± 0.01 µM.

In the case of `O=S(=O)(Nc1nnc(-c2ccc(C(c3c[nH]c4ccc(Br)cc34)c3c[nH]c4ccc(Br)cc34)cc2)s1)c1ccc(Cl)cc1Cl` [Compound 7, N-(5-(4-(bis(5-bromo-1H-indol-3-yl)methyl)phenyl)-1,3,4-thiadiazol-2-yl)-2,4-dichlorobenzenesulfonamide], on jack bean urease, 2.3 ± 0.1 µM corresponded to half-maximal inhibition (IC50). Consider `Cc1ccc(Cl)c(S(=O)(=O)Nc2nnc(-c3ccc(C(c4c[nH]c5ccc(Br)cc45)c4c[nH]c5ccc(Br)cc45)cc3)s2)c1` [Compound 12, N-(5-(4-(bis(5-bromo-1H-indol-3-yl)methyl)phenyl)-1,3,4-thiadiazol-2-yl)-2-chloro-5-methylbenzenesulfonamide], for which the melting point lay within 301 to 302 °C. The IC50 at jack bean urease turned out to be 8.5 ± 0.3 µM. For `COc1ccc(Br)c(S(=O)(=O)Nc2nnc(-c3ccc(C(c4c[nH]c5ccc(Br)cc45)c4c[nH]c5ccc(Br)cc45)cc3)s2)c1` [Compound 14, N-(5-(4-(bis(5-bromo-1H-indol-3-yl)methyl)phenyl)-1,3,4-thiadiazol-2-yl)-2-bromo-5-methoxybenzenesulfonamide], in that order: 309 to 310 °C and 19.8 ± 0.8 µM. For `COc1ccc(Cl)cc1S(=O)(=O)Nc1nnc(-c2ccc(C(c3c[nH]c4ccc(Br)cc34)c3c[nH]c4ccc(Br)cc34)cc2)s1` [Compound 5, N-(5-(4-(bis(5-bromo-1H-indol-3-yl)methyl)phenyl)-1,3,4-thiadiazol-2-yl)-5-chloro-2-methoxybenzenesulfonamide], the melting point lay in the range of 315 to 316 °C. The IC50 on jack bean urease was 7.3 ± 0.1 µM. The corresponding values for `Cc1ccccc1S(=O)(=O)Nc1nnc(-c2ccc(C(c3c[nH]c4ccc(Br)cc34)c3c[nH]c4ccc(Br)cc34)cc2)s1` [Compound 16, N-(5-(4-(bis(5-bromo-1H-indol-3-yl)methyl)phenyl)-1,3,4-thiadiazol-2-yl)-2-methylbenzenesulfonamide] are 291 to 292 °C and 23.8 ± 1 µM. The corresponding values for `Cc1ccc(S(=O)(=O)Nc2nnc(-c3ccc(C(c4c[nH]c5ccc(Br)cc45)c4c[nH]c5ccc(Br)cc45)cc3)s2)cc1` [Compound 18, N-(5-(4-(bis(5-bromo-1H-indol-3-yl)methyl)phenyl)-1,3,4-thiadiazol-2-yl)-4-methylbenzenesulfonamide] are 285 to 286 °C and 20.4 ± 1.2 µM.

Source of the values: article PMC7224224, “Synthesis of diindolylmethane (DIM) bearing thiadiazole derivatives as a potent urease inhibitor” (Scientific Reports, 2020).
